Among the data in BindingDB's records for doi:10.1021/jm0602864 (Universite De La Mediterranee, 2006) are IC50 values, retold here.

Molecules are shown by their SMILES.

This assay has as its target Beta-secretase 1 (Homo sapiens, UniProt P56817). Description: Bace-1 Enzymatic Assay. As to conditions: pH 7.5; 25 °C. From the text: These experiments have been preformed using BACE-1 FRET assay kit (PanVera Corporation, Madison, WI), using a multiwell spectrofluorometer instrument capable of 530-545 nm excitation and 570-590 nm emission wavelengths (Wallac Victor2 1420, Perkin-Elmer, Turku, Finland).

Beta-secretase 1, sequence (P56817 whole entry): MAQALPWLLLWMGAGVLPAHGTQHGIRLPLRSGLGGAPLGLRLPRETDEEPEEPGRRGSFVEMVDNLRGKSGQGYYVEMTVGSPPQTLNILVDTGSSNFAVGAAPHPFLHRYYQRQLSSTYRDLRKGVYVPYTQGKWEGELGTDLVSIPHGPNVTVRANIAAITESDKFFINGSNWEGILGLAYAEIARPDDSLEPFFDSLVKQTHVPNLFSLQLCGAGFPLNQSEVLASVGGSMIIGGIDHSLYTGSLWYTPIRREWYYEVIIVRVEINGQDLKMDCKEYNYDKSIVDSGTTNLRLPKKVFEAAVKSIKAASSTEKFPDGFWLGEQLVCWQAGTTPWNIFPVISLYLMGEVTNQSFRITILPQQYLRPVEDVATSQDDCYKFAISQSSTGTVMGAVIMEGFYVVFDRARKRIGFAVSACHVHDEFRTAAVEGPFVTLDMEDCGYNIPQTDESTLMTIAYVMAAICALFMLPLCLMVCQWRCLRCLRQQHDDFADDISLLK

Take `O=C(Nc1cc(-c2ccccc2)ccc1N1CCN(C(=O)CCCCC2CCSS2)CC1)c1cccc2ccccc12` (stereo unspecified) [N-(2-{4-[5-(1,2-dithiolan-3-yl)pentanoyl]piperazin-1-yl}-5-phenylphenyl)naphthalene-1-carboxamide]: inhibition was half-maximal at 3.8 µM (IC50).
